Here are results for 7 compounds from ChEMBL document CHEMBL1125398, “Antiestrogens. 3. Estrogen receptor affinities and antiproliferative effects in MCF-7 cells of phenolic analogues of trioxifene, [3,4-dihydro-2-(4- methoxyphenyl)-1-naphthalenyl][4-[2-(1-pyrrolidinyl)ethoxy]- phenyl]methanone” (J Med Chem, 1992).

Assay [1] is filed under the species Homo sapiens. Put plainly: Inhibition of Calmodulin activation of cyclic nucleotide phosphodiesterase. The assay is classed as functional. To be noted: concentration not given here.
In assay [2] the target is Estrogen receptor (Homo sapiens, UniProt Q92731+P03372). To be noted: mcf7.
Description: Displacement of [3H]estradiol from Estrogen receptor in MCF-7 cells

As to `O=C(C1=C(c2ccccc2)CCc2cc(O)ccc21)c1ccc(OCCN2CCCCC2)cc1`, the inhibition in assay [1] came out at 6%. The half-maximal inhibitory concentration (IC50) in assay [2] amounted to 1650 nM. For the compound `O=C(C1=C(c2ccc(O)cc2)CCc2cc(O)ccc21)c1ccc(OCCN2CCCCC2)cc1`, the inhibition in assay [1] was 2%. Further, the IC50 in assay [2] is on record as 73 nM. As to `O=C(c1ccc(OCCN2CCCCC2)cc1)c1c(-c2ccc(O)cc2)sc2cc(O)ccc12`, the inhibition in assay [1] is 6%. In turn, `O=C(c1ccc(OCCN2CCCC2)cc1)c1c(-c2ccc(O)cc2)sc2cc(O)ccc12` [LY-117018] had an inhibition in assay [1] of 3%. The compound also returned an IC50 in assay [2] of 120 nM. The corresponding values for `Oc1ccc2c(c1)C(c1ccc(OCCN3CCCCC3)cc1)c1c-2ccc2cc(O)ccc12` (configuration not stated) are 18% and 125 nM. For `Oc1ccc2c3c(ccc2c1)-c1ccccc1C3c1ccc(OCCN2CCCCC2)cc1` (configuration not stated) the same measures were 22% and 740 nM. In turn, `CC/C(=C(\c1ccccc1)c1ccc(OCCN(C)C)cc1)c1ccccc1` displayed an inhibition in assay [1] of 44%.
